Laboratory results taken from patent publication US9120749B2, “Quinoline derivatives and MELK inhibitors containing the same” (ONCOTHERAPY SCIENCE, INC., priority 2010, dated 2015).
Structures can show the parent of a compound that is named as a salt.

Legend:
BT-549 cells = experiment: Cell-based assay: anti-proliferative activity, Cell Counting Kit-8, 72 hours (BT-549); settings: Homo sapiens, BT-549, 72 h, BT549 cells, MELK-expressing; Cell Counting Kit-8 at 72 hours
Description: To evaluate the expression status of MELK in several cell lines, western blot analysis was performed using crude cell lysate collected from those cells. Anti-MELK antibody (clone 31, BD Biosciences) was used to visualize the expression.
Active candidate inhibitors against MELK were evaluated for their target-specific cytotoxicity using T47D, A549, BT-549, and HT-1197 cells was used for negative control. 100 micro-L of cell suspension was seeded onto 96-well microtiter plate (ViewPlate-96FTC, PerkinElmer). The initial cell concentration of T47D, A549, BT-549, and HT-1197 were 3,000 cells/well, 2,000 cells/well and 2,500 cells/well, respectively. Cellular growth was determined using Cell Counting Kit-8 (DOJINDO) at 72 hours after the exposure of the candidate inhibitors. […] Accurate IC50 values were calculated as described previously.

HT-1197 cells = experiment: Cell-based assay: anti-proliferative activity, Cell Counting Kit-8, 72 hours (HT-1197, negative control without MELK expression); settings: Homo sapiens, HT1197, 72 h, HT1197 cells, no MELK expression (negative control); Cell Counting Kit-8 at 72 hours
Summary of the method: (§1)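 First, lysates underwent western blotting with anti-MELK antibody to establish expression. Next, cells went into 96-well plates. Then candidate inhibitors were added. Finally, viability was determined by CCK-8 at 72 h and IC50 computed.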

T47D cells = experiment: Cell-based assay: anti-proliferative activity, Cell Counting Kit-8, 72 hours (T47D); settings: Homo sapiens, T47D, 72 h, MELK-expressing, Cell Counting Kit-8 at 72 hours
Summary of the method: as §1

MELK = MELK (Homo sapiens, UniProt Q14680); experiment: Kinase assay: MELK activity, phosphorylation of FITC-labeled histone H3 peptide measured by IMAP fluorescence polarization; type: biochemical; settings: 50 micro-M ATP, FITC-labeled histone H3 peptide substrate, IMAP fluorescence polarization; read-out: IC50 (μM) (kinase assay)
Chain of MELK (Q14680 whole entry, looked up): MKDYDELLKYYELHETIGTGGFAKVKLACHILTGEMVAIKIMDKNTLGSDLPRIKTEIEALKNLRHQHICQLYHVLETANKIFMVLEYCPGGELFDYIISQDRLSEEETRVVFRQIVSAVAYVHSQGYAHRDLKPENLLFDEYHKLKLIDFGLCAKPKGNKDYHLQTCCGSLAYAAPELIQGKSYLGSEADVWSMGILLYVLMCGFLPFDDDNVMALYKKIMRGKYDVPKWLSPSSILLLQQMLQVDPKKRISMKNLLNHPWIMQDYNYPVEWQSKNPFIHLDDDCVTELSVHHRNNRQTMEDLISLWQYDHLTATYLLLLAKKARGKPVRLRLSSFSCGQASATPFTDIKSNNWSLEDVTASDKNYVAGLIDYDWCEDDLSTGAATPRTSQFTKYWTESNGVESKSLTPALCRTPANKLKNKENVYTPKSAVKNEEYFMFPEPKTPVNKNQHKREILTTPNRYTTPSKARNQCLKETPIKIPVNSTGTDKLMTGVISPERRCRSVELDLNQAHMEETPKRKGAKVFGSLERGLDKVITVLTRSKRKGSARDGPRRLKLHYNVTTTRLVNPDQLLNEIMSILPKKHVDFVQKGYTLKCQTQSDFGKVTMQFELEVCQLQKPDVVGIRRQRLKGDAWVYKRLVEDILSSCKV
Summary of the method: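 Kinase reactions ran with or without test compound (final DMSO 1%) on a fluorescein-tagged H3 peptide. Progressive binding solution was added to terminate them. After a half-hour room-temperature incubation, polarization was measured.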

A549 cells = experiment: Cell-based assay: anti-proliferative activity, Cell Counting Kit-8, 72 hours (A549); settings: Homo sapiens, A549, 72 h, MELK-expressing, Cell Counting Kit-8 at 72 hours
Summary of the method: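 A549 cells seeded in 96-well plates and exposed to candidate inhibitors for 72 hours. Growth measured with Cell Counting Kit-8; IC50 values calculated from the dose response.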

Structure (SMILES)	IC50 (BT-549 cells)	IC50 (HT-1197 cells)	IC50 (T47D cells)	IC50 (MELK)	IC50 (A549 cells)
CCN(CC)[C@H]1CC[C@H](Nc2c(C(=O)C3CC3)cnc3ccc(-c4cc(Cl)c(O)c(OC)c4)cc23)CC1 [Example 314, {6-(3-Chloro-4-hydroxy-5-methoxyphenyl)-4-[trans-4-(diethylamino)cyclohexylamino]quinolin-3-yl}(cyclopropyl)methanone]	0.73 µM	4.3 µM	0.16 µM	0.0031 µM	0.22 µM
COc1cc(-c2ccc3ncc(C(=O)C4CC4)c(NCC4CCN(C)CC4)c3c2)cc(Cl)c1O [Example 201, {6-(3-Chloro-4-hydroxy-5-methoxyphenyl)-4-[(1-methylpiperidin-4-yl)methylamino]quinolin-3-yl}(cyclopropyl)methanone]	1.8 µM	7.4 µM	0.76 µM	0.0034 µM	0.73 µM
CCN(CC)C1CCC(Nc2c(C(=O)C3CC3)cnc3ccc(-c4ccc(O)c(Cl)c4)cc23)CC1 (stereo not drawn) [Example 192, {6-(3-Chloro-4-hydroxyphenyl)-4-[4-(diethylamino)cyclohexylamino]quinolin-3-yl}(cyclopropyl)methanone]	1.3 µM	2.2 µM	0.57 µM	0.011 µM	0.42 µM
CN(C)[C@H]1CC[C@H](Nc2c(C(=O)C3CC3)cnc3cc(F)c(-c4cc(F)c(O)c(F)c4)cc23)CC1 [Example 294, Cyclopropyl{6-(3,5-difluoro-4-hydroxyphenyl)-4-[trans-4-(dimethylamino)cyclohexylamino]-7-fluoroquinolin-3-yl}methanone]	0.55 µM	1.5 µM	0.68 µM	0.042 µM	0.43 µM
CC(C)CC(=O)c1cnc2ccc(-c3cc(Cl)c(O)c(Cl)c3)cc2c1N[C@H]1CC[C@H](N)CC1 [Example 267, 1-{4-[trans-4-Aminocyclohexylamino]-6-(3,5-dichloro-4-hydroxyphenyl)quinolin-3-yl}-3-methylbutan-1-one dihydrochloride]	0.72 µM	3 µM	0.14 µM	0.0022 µM	0.38 µM
N[C@H]1CC[C@H](Nc2c(C(=O)C3CC3)cnc3ccc(-c4cc(F)c(O)c(F)c4)cc23)CC1 [Example 156, {4-[trans-4-Aminocyclohexylamino]-6-(3,5-difluoro-4-hydroxyphenyl)quinolin-3-yl}(cyclopropyl)methanone]	0.16 µM	3.1 µM	0.095 µM	0.023 µM	0.88 µM
O=C(c1cnc2ccc(-c3ccc(O)c(Cl)c3)cc2c1N[C@H]1CC[C@H](N2CCCC2)CC1)C1CC1 [Example 342, {6-(3-Chloro-4-hydroxyphenyl)-4-[trans-4-(pyrrolidin-1-yl)cyclohexylamino]quinolin-3-yl}(cyclopropyl)methanone]	0.68 µM	1.8 µM	0.25 µM	0.0046 µM	0.27 µM
CC(=O)c1cnc2ccc(-c3cc(F)c(O)c(F)c3)cc2c1N[C@H]1CC[C@H](N)CC1 [Example 258, 1-{4-[trans-4-Aminocyclohexylamino]-6-(3,5-difluoro-4-hydroxyphenyl)quinolin-3-yl}ethanone]	0.16 µM	100 µM	0.071 µM	0.04 µM	0.85 µM
CCN(CC)C1CCC(Nc2c(S(C)(=O)=O)cnc3ccc(-c4cc(Cl)c(O)c(OC)c4)cc23)CC1 (stereo not drawn) [Example 240, 2-Chloro-4-{4-[4-(diethylamino)cyclohexylamino]-3-(methylsulfonyl)quinolin-6-yl}-6-methoxyphenol dihydrochloride]	1.5 µM	3.8 µM	0.97 µM	0.0053 µM	0.78 µM
COc1cc(-c2ccc3ncc(C(=O)C4CC4)c(N4CCC(CN5CCOCC5)CC4)c3c2)cc(Cl)c1O [Example 334, {6-(3-Chloro-4-hydroxy-5-methoxyphenyl)-4-[4-(morpholinomethyl)piperidin-1-yl]quinolin-3-yl}(cyclopropyl)methanone]	0.77 µM	4.8 µM	0.55 µM	0.0081 µM	0.41 µM
COc1cc(-c2ccc3ncc(C(=O)C4CC4)c(N[C@H]4CC[C@H](N)CC4)c3c2)ccc1O [Example 81, {4-[trans-4-Aminocyclohexylamino]-6-(4-hydroxy-3-methoxyphenyl)quinolin-3-yl}(cyclopropyl)methanone]	0.55 µM	1.2 µM	0.13 µM	0.007 µM	0.23 µM
CC(=O)c1cnc2ccc(-c3cc(F)c(O)c(Cl)c3)cc2c1N1CCC(CN2CCCC2)CC1 [Example 336, 1-{6-(3-Chloro-5-fluoro-4-hydroxyphenyl)-4-[4-(pyrrolidin-1-ylmethyl)piperidin-1-yl]quinolin-3-yl}ethanone]	0.85 µM	5 µM	0.33 µM	0.0069 µM	0.8 µM
COc1cc(-c2ccc3ncc(C(=O)C4CC4)c(N4CCC5(CCNC5)CC4)c3c2)cc(Cl)c1O [Example 155, [6-(3-Chloro-4-hydroxy-5-methoxyphenyl)-4-(2,8-diazaspiro[4,5]decan-8-yl)quinolin-3-yl](cyclopropyl)methanone]	0.79 µM	2.4 µM	0.43 µM	0.004 µM	0.68 µM
CC(C)C(=O)c1cnc2ccc(-c3ccc(O)c(Cl)c3)cc2c1N[C@H]1CC[C@H](N)CC1 [Example 219, 1-{4-[trans-4-Aminocyclohexylamino]-6-(3-chloro-4-hydroxyphenyl)quinolin-3-yl}-2-methylpropan-1-one]	0.25 µM	1.2 µM	0.11 µM	0.023 µM	0.32 µM
CC(C)C(=O)c1cnc2ccc(-c3cc(F)c(O)c(Cl)c3)cc2c1N1CCC(CN2CCCC2)CC1 [Example 323, 1-{6-(3-Chloro-5-fluoro-4-hydroxyphenyl)-4-[4-(pyrrolidin-1-ylmethyl)piperidin-1-yl]quinolin-3-yl}-2-methylpropan-1-one]	1.5 µM	1.2 µM	0.63 µM	0.013 µM	0.87 µM
COc1cc(-c2ccc3ncc(C(=O)C4CC4)c(N[C@H]4CC[C@@H](N)CC4)c3c2)ccc1O [Example 165, {4-(cis-4-Aminocyclohexylamino)-6-(4-hydroxy-3-methoxyphenyl)quinolin-3-yl}(cyclopropyl)methanone]	0.93 µM	2.1 µM	0.57 µM	0.0019 µM	0.45 µM
CC(C)C(=O)c1cnc2ccc(-c3ccc(O)c(Cl)c3)cc2c1N1CCC(CN2CCCC2)CC1 [Example 318, 1-{6-(3-Chloro-4-hydroxyphenyl)-4-[4-(pyrrolidin-1-ylmethyl)piperidin-1-yl]quinolin-3-yl}-2-methylpropan-1-one]	1.8 µM	1.4 µM	0.92 µM	0.02 µM	0.87 µM
COc1cc(-c2ccc3ncc(C(=O)C4CC4)c(N4CCC(CN(C)C)CC4)c3c2)cc(Cl)c1O [Example 276, [6-(3-Chloro-4-hydroxy-5-methoxyphenyl)-4-{4-[(dimethylamino)methyl]piperidin-1-yl}quinolin-3-yl](cyclopropyl)methanone]	0.58 µM	1.8 µM	0.16 µM	0.0008 µM	0.21 µM
COc1cc(-c2ccc3ncc(C(=O)C4CC4)c(N4CCC(CN5CCCC5)CC4)c3c2)cc(F)c1O [Example 307, Cyclopropyl{6-(3-fluoro-4-hydroxy-5-methoxyphenyl)-4-[4-(pyrrolidin-1-ylmethyl)piperidin-1-yl]quinolin-3-yl}methanone]	1.2 µM	3 µM	0.79 µM	0.0041 µM	0.53 µM
N[C@H]1CC[C@H](Nc2c(C(=O)C3CC3)cnc3ccc(-c4cn[nH]c4)cc23)CC1 [Example 213, {4-[trans-4-Aminocyclohexylamino]-6-(1H-pyrazol-4-yl)quinolin-3-yl}(cyclopropyl)methanone]	1.7 µM	14 µM	0.89 µM	0.067 µM	5.1 µM
CN(C)[C@H]1CC[C@H](Nc2c(C(=O)C3CC3)cnc3cc(F)c(-c4cc(F)c(O)c(Cl)c4)cc23)CC1 [Example 295, {6-(3-Chloro-5-fluoro-4-hydroxyphenyl)-4-[trans-4-(dimethylamino)cyclohexylamino]-7-fluoroquinolin-3-yl}(cyclopropyl)methanone]	0.39 µM	1.2 µM	0.42 µM	0.027 µM	0.31 µM
